Source: PubChem BioAssay (NCI)
Values joined by “and” are separate entries in the source; they are usually repeats but may differ in a detail not shown here. Identical values can stand only once.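 Method: 48-hour compound exposure of cells in 96-well plates, five concentrations, linear interpolation of endpoints. GI50 is the concentration that inhibits growth by half. TGI: total growth inhibition.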 Where a SMILES comes first, the peptide text is derived from it. [ ]: non-standard residue; d: D form. pGlu = O=C1CC[CH](C(=O)O)N1

Legend:
Assay in all cases: DTP human tumour cell line panel, 48 h
[1] = test system: SN12C renal
[2] = test system: TK-10 renal
[3] = test system: MALME-3M melanoma
[4] = test system: M14 melanoma
[5] = test system: NCI-H23 lung
[6] = test system: NCI-H226 lung
[7] = test system: SF-539 CNS
[8] = test system: MDA-N
[9] = test system: SNB-19 CNS

With Cc1ccc(C(=O)C2=CN=C3C(=O)N(c4ccccc4)N(C)C3(C)C2=N)cc1 (centres undefined) the TGI [1] was over 100 µM, the TGI [2] was over 100 µM and the TGI [3] was over 100 µM. It also gave a TGI [4] of over 100 µM, a TGI [5] of over 100 µM and a TGI [6] of over 100 µM. For the same compound, the TGI [7] was over 100 µM and the TGI [8] was over 100 µM.

CCOC(=O)c1nc2cc(C(F)(F)F)ccc2nc1Nc1ccc(F)cc1 showed a TGI [1] of over 100 µM, a TGI [2] of over 100 µM and a TGI [3] of over 100 µM. The TGI [4] was over 100 µM, the TGI [5] was over 100 µM and the TGI [6] was over 100 µM. It also gave a TGI [7] of 55.9 µM and a TGI [8] of over 100 µM.

Work on CCOC(=O)C1C[C@H]2CO[C@H](c3ccccc3)N2C1=O (some centres undefined) yielded a TGI [9] of over 100 µM, a TGI [1] of over 100 µM and a TGI [2] of over 100 µM. It also gave a TGI [3] of over 100 µM, a TGI [4] of over 100 µM and a TGI [5] of over 100 µM. For the same compound, the TGI [6] was over 100 µM, the TGI [7] was over 100 µM and the TGI [8] was over 100 µM.

Compound C=CCCC(On1c(-c2ccc(Cl)cc2)csc1=S)c1ccccc1 (centres undefined) has a TGI [9] of over 100 µM, a TGI [1] of over 100 µM and a TGI [2] of over 100 µM. For the same compound, the TGI [3] was 98.4 µM, the TGI [4] was over 100 µM and the TGI [5] was over 100 µM. It also gave a TGI [6] of 81.8 µM, a TGI [7] of over 100 µM and a TGI [8] of 13.4 µM.

With CC1(C)OCC(COC(=O)NCn2cc(-c3ccccc3)nn2)O1 (centres undefined) the TGI [9] was over 100 µM, the TGI [1] was over 100 µM and the TGI [2] was over 100 µM. It also gave a TGI [3] of over 100 µM, a TGI [4] of over 100 µM and a TGI [5] of over 100 µM. For the same compound, the TGI [6] was over 100 µM and the TGI [7] was over 100 µM.

Work on CCOC(=O)Cn1nnc2cc(Nc3nc4ccccc4nc3C(=O)OCC)ccc21 yielded a TGI [9] of over 100 µM, a TGI [1] of over 100 µM and a TGI [2] of 59 µM. It also gave a TGI [3] of over 100 µM, a TGI [4] of over 100 µM and a TGI [5] of over 100 µM. The TGI [6] was over 100 µM, the TGI [7] was 58.6 µM and the TGI [8] was over 100 µM.

NC(=O)c1ncn2c(=O)n(CCl)nnc12 showed a TGI [9] of over 100 µM, a TGI [1] of over 100 µM and a TGI [2] of over 100 µM. The TGI [3] was over 100 µM, the TGI [4] was over 100 µM and the TGI [5] was over 100 µM. The TGI [6] was over 100 µM, the TGI [7] was over 100 µM and the TGI [8] was over 100 µM.

COc1c(-c2cccs2)oc2c(CC(=O)O)cccc2c1=O gave a TGI [1] of over 100 µM, a TGI [2] of over 100 µM and a TGI [3] of over 100 µM. The TGI [4] was over 100 µM, the TGI [5] was over 100 µM and the TGI [7] was over 100 µM. It also gave a TGI [8] of over 100 µM.

With C=C1C(=O)O[C@@H]2OC3(C)CCC4C(C)CCC1C42OO3 (some centres undefined) the GI50 [9] was 12.6 µM, the TGI [9] was 26.5 µM and 27.9 µM and the GI50 [1] was 4.96 µM. For the same compound, the TGI [1] was 16.6 µM and 12.3 µM, the GI50 [3] was 4.13 µM and the GI50 [5] was 7.77 µM. The TGI [5] was 22 µM and 17.5 µM, the TGI [6] was 27.2 µM and 24.2 µM and the GI50 [7] was 3.07 µM. For the same compound, the TGI [7] was 11.7 µM and 6.62 µM.

For CCCCC1(N=[N+]=[N-])C(=O)C2C=CC=C3c4ccccc4N(C1=O)C32 (centres undefined), the TGI [9] was over 31.6 µM, the TGI [1] was over 31.6 µM and the TGI [2] was over 31.6 µM. The TGI [3] was over 31.6 µM, the TGI [4] was over 31.6 µM and the TGI [5] was over 31.6 µM. For the same compound, the TGI [6] was over 31.6 µM, the TGI [7] was over 31.6 µM and the TGI [8] was over 31.6 µM.

For COc1ccc(-c2nnc(-c3ccncc3)o2)cc1, the TGI [9] was over 100 µM, the TGI [1] was over 100 µM and the TGI [2] was over 100 µM. For the same compound, the TGI [3] was over 100 µM, the TGI [4] was over 100 µM and the TGI [5] was over 100 µM. It also gave a TGI [6] of over 100 µM, a TGI [7] of over 100 µM and a TGI [8] of over 100 µM.

For NC(=O)CCC(NC(=O)c1cccc2c(=O)c3ccccc3[nH]c12)C(=O)O (centres undefined), the TGI [9] was over 100 µM, the TGI [1] was over 100 µM and the TGI [2] was over 100 µM. It also gave a TGI [3] of over 100 µM, a TGI [4] of over 100 µM and a TGI [5] of over 100 µM. For the same compound, the TGI [6] was over 100 µM and the TGI [8] was over 100 µM.

CC(NC(=O)C(Cc1cnc[nH]1)NC(=O)C1CCC(=O)N1)C(N)=O (stereo not drawn) ([pGlu]-His-Ala-NH2; configuration not given here) showed a TGI [9] of over 100 µM, a TGI [1] of over 100 µM and a TGI [2] of over 100 µM. The TGI [3] was over 100 µM, the TGI [4] was over 100 µM and the TGI [5] was over 100 µM. It also gave a TGI [6] of over 100 µM and a TGI [8] of over 100 µM.

Work on COc1ccc(N=N/C(=N/NC(=O)c2cc(Cl)ccc2C(=O)c2ccccc2)c2ccc(N(CCC#N)CCC#N)cc2C)cc1 yielded a TGI [9] of over 100 µM, a TGI [1] of 47.1 µM and a TGI [2] of 75.1 µM. The TGI [3] was 94.7 µM, the TGI [4] was 92 µM and the TGI [5] was 61.9 µM. For the same compound, the TGI [6] was 66.3 µM and the TGI [8] was over 100 µM.

COc1cc2c(cc1OC(=O)c1cc3ccccc3[nH]1)N=C[C@@H]1CCCN1C2=O gave a TGI [9] of 3.04 µM, a TGI [1] of 0.513 µM and a TGI [2] of 13.8 µM. For the same compound, the TGI [3] was 2.24 µM, the TGI [4] was 0.387 µM and the TGI [6] was 5.97 µM. For the same compound, the TGI [7] was 1.17 µM and the TGI [8] was 0.375 µM.

For CC(C)(C)c1cc(/C=C/C(=O)CC(=O)/C=C/c2cc(C(C)(C)C)c(O)c(C(C)(C)C)c2)cc(C(C)(C)C)c1O, the TGI [9] was over 50 µM, the TGI [1] was over 50 µM and the TGI [2] was over 50 µM. It also gave a TGI [4] of over 50 µM, a TGI [5] of over 50 µM and a TGI [6] of over 50 µM. It also gave a TGI [7] of over 50 µM and a TGI [8] of over 50 µM.

Compound CC1CC(=O)Nc2ccc(N=NN(C)C)cc2N1C=O (centres undefined) has a TGI [9] of over 100 µM, a TGI [1] of over 100 µM and a TGI [2] of over 100 µM. The TGI [3] was over 100 µM, the TGI [4] was over 100 µM and the TGI [5] was over 100 µM. The TGI [6] was over 100 µM and the TGI [8] was over 100 µM.

Compound O=C1OC(c2ccc(Cl)cc2)(c2ccc(Cl)cc2)c2c1ccc1ccccc21 has a TGI [9] of over 100 µM, a TGI [1] of over 100 µM and a TGI [2] of over 100 µM. The TGI [3] was over 100 µM, the TGI [5] was over 100 µM and the TGI [6] was over 100 µM.

CCOc1cc2c(cc1O)CC[C@@H]1[C@@H]2CC[C@]2(C)C(OS(=O)OC3CC[C@@H]4[C@H]5CCc6cc(O)c(OCC)cc6[C@@H]5CC[C@@]34C)CC[C@@H]12 (some centres undefined) gave a TGI [9] of 30.4 µM, a TGI [1] of 28.9 µM and a TGI [2] of over 100 µM. The TGI [3] was 13.4 µM, the TGI [4] was 2.58 µM and the TGI [5] was 14 µM. It also gave a TGI [6] of 14.6 µM, a TGI [7] of 1.85 µM and a TGI [8] of 0.544 µM.

In the case of CCNc1cc2c3c(c1)CCCN3CCC2, the TGI [9] is reported as 33 µM, the TGI [1] is reported as 8.63 µM and the TGI [2] is reported as over 100 µM. The TGI [3] was 44.6 µM, the TGI [4] was 63.7 µM and the TGI [5] was 21.9 µM. The TGI [6] was 41.9 µM, the TGI [7] was 40.5 µM and the TGI [8] was 10.9 µM.

CC(O)c1cc2c(s1)C(=O)c1scc(C(C)O)c1C2=O (centres undefined) gave a TGI [9] of 1.66 µM, a TGI [1] of 0.44 µM and a TGI [2] of 3.37 µM. It also gave a TGI [3] of 0.35 µM, a TGI [4] of 0.442 µM and a TGI [5] of 0.415 µM. For the same compound, the TGI [6] was 4.03 µM and the TGI [8] was 0.421 µM.

COC(=O)c1c(O)ccc2c1c1c(n2Cc2ccccn2)C(=O)c2ccccc2C1=O was tested, and the TGI [9] was over 100 µM, the TGI [1] was over 100 µM and the TGI [2] was over 100 µM. For the same compound, the TGI [3] was 89.8 µM, the TGI [4] was over 100 µM and the TGI [5] was over 100 µM. The TGI [6] was over 100 µM, the TGI [7] was 42.9 µM and the TGI [8] was over 100 µM.
